Like-named read-outs stand apart in the source and are kept apart here.

Assay [1] concerns HepG2-A16-CD81EGFP cells. Put plainly: cells. The settings on record: Homo sapiens, HepG2, read-out: % inhibition.
The test system of assay [2] is Plasmodium berghei (Pb-Luc) exoerythrocytic-stage parasites. In words: microbe, parasite or virus in culture.
Setting [3] is: read-out: Inhibition% @ 50 uM rep1.
Where [4] appears, read: read-out: Inhibition% @ 50 uM rep2.

Take `CC1CCN(Cc2c(O)ccc3cc(-c4nc5ccccc5s4)c(=O)oc23)CC1` [MMV009127]: the results for the inhibition at 50 µM in assay [1], in assay [2] (setting [3]) and in assay [2] (setting [4]) were -10.1%, 75% and 76%, respectively.

For `COc1cccc(Nc2nc(N)c3ccccc3n2)c1` [MMV019199], the inhibition at 50 µM in assay [1] stood at 88.3%; in assay [2] (setting [3]), 98%; in assay [2] (setting [4]) it was 99%.

With `COc1ccc(-c2cn3c(C(=O)Nc4ccccc4Cl)c(-c4ccccc4)c4c3n2CCCC4)cc1` [MMV020403], the figures for the inhibition at 50 µM in assay [1], in assay [2] (setting [3]) and in assay [2] (setting [4]) were 52.5%, 102% and 103%, respectively.

For `Nc1nc(Nc2cccc(F)c2)nc2ccccc12` [MMV080034], the inhibition at 50 µM was determined as 81.8% in assay [1], 102% in assay [2] (setting [3]) and 103% in assay [2] (setting [4]).

With `Cc1cc(N2CCCC2)nc(Nc2ccc(NC(=O)CCc3ccccc3)cc2)n1` [MMV396669], the inhibition at 50 µM in assay [1] stood at 96.9%; in assay [2] (setting [3]), 103%; in assay [2] (setting [4]), 103%.

With `N=c1n(CCN2CCCCC2)c2ccccc2n1CC(=O)c1ccc(Cl)c(Cl)c1` [MMV396723], the inhibition at 50 µM in assay [1] was 96.7%; in assay [2] (setting [3]), 101%; in assay [2] (setting [4]) it was 102%.

As to `Nc1ccn([C@@H]2O[C@H](CO)[C@@H](O)[C@H]2O)c(=O)n1` [MMV638723], the results for the inhibition at 50 µM in assay [1], in assay [2] (setting [3]) and in assay [2] (setting [4]) were 3.04%, 30% and 19%, respectively.

Consider `CCN(CC)CCCNc1ccnc2cc3ccccc3cc12` [MMV665783], for which the inhibition at 50 µM in assay [1] came out at 31.7%; in assay [2] (setting [3]) it was 90%; in assay [2] (setting [4]), 95%.

For the molecule `O=c1cc(NC2CCN(CCCc3ccccc3)CC2)c2cc(Cl)ccc2o1` [MMV665786], the values for the inhibition at 50 µM in assay [1], in assay [2] (setting [3]) and in assay [2] (setting [4]) were 80.6%, 100% and 103%, respectively.

For `CCCCOC(=O)c1ccc(Nc2cc(C)nc3ccc(OC)cc23)cc1` [MMV665797], the inhibition at 50 µM in assay [1] came out at 95.1%; in assay [2] (setting [3]), 100%; in assay [2] (setting [4]), 101%.

`Oc1ccc(Br)cc1CN1CCN(Cc2ccc(Cl)cc2)CC1` [MMV665809]: the inhibition at 50 µM in assay [1] amounted to 93.9%; in assay [2] (setting [3]), 103%; in assay [2] (setting [4]), 103%.

Regarding `O=C(Nc1cccc(C2=NCCN2)c1)Nc1cccc(C2=NCCN2)c1` [MMV665810], the inhibition at 50 µM in assay [1] amounted to 48.2%; in assay [2] (setting [3]) it was 61%; in assay [2] (setting [4]), 83%.

Consider `CCc1ccc(CNCC(O)c2ccccc2)cc1` (stereo not drawn) [MMV665812], for which the values for the inhibition at 50 µM in assay [1], in assay [2] (setting [3]) and in assay [2] (setting [4]) were 94.8%, 98% and 99%, respectively.

On to `Cn1c(C(=O)c2cccc3ccccc23)nc2ccccc21` [MMV665824], for which the inhibition at 50 µM in assay [1] worked out at 35.6%; in assay [2] (setting [3]), 96%; in assay [2] (setting [4]), 98%.

On to `COc1ccc(C=C2SC(Nc3ccccc3)=NC2=O)cc1` [MMV665836], for which the values for the inhibition at 50 µM in assay [1], in assay [2] (setting [3]) and in assay [2] (setting [4]) were 83.2%, 103% and 103%, respectively.

`CCOc1c(Cl)cc(CNC(C)C(O)c2ccccc2)cc1OC` (stereo not drawn) [MMV665857]: the inhibition at 50 µM in assay [1] was 98.7%; in assay [2] (setting [3]) it was 102%; in assay [2] (setting [4]), 103%.

For `Cn1c(=O)n(C)c2cc(CNCCNc3ccnc4cc(Cl)ccc34)ccc21` [MMV665875], the inhibition at 50 µM was 45.3% in assay [1], 92% in assay [2] (setting [3]) and 92% in assay [2] (setting [4]).

In the case of `COc1ccc(CNC(=O)c2cc3c(=O)n4ccccc4nc3n(CCc3ccccc3)c2=N)cc1` [MMV665881], the inhibition at 50 µM in assay [1] stood at 1.19%; in assay [2] (setting [3]), 68%; in assay [2] (setting [4]) it was 76%.

Regarding `COc1cc(C(=O)Nc2ccc(-c3nc4ccccc4[nH]3)cc2)cc(OC)c1OC` [MMV665898], the results for the inhibition at 50 µM in assay [1], in assay [2] (setting [3]) and in assay [2] (setting [4]) were 69.9%, 99% and 101%, respectively.

For the molecule `COc1ccc(C(=O)C2CC2c2ccc(Cl)cc2)cc1` (stereo not drawn) [MMV665924], the results for the inhibition at 50 µM in assay [1], in assay [2] (setting [3]) and in assay [2] (setting [4]) were 38.1%, 79% and 83%, respectively.

`O=C(CCl)NCCOc1ccc(Cl)cc1Cl` [MMV665927]: the inhibition at 50 µM in assay [1] was 91.7%; in assay [2] (setting [3]), 100%; in assay [2] (setting [4]), 99%.

In the case of `COc1ccc(CN2CCN(Cc3ccccc3)CC2)c(O)c1` [MMV665944], the inhibition at 50 µM in assay [1] was found to be 85.9%; in assay [2] (setting [3]) it was 69%; in assay [2] (setting [4]), 72%.

Consider `Oc1ccc(C(=C(Cl)Cl)c2ccc(O)cc2)cc1` [MMV665949], for which the inhibition at 50 µM was found to be 87.2% in assay [1], 98% in assay [2] (setting [3]) and 99% in assay [2] (setting [4]).

Regarding `O=C(Cc1ccccc1)NC(c1ccc(Cl)cc1)c1c(O)ccc2ccccc12` (stereo not drawn) [MMV665972], the inhibition at 50 µM was 97.4% in assay [1], 101% in assay [2] (setting [3]) and 101% in assay [2] (setting [4]).

Regarding `OC1CCCCC1C1(NC(=S)Nc2ccccc2)CCCCC1` (stereo not drawn) [MMV665980], the inhibition at 50 µM in assay [1] worked out at 82.2%; in assay [2] (setting [3]), 104%; in assay [2] (setting [4]) it was 104%.

As for `CCCCCCc1cc(O)c2c3c(c(=O)oc2c1)CCC(C)C3` (stereo not drawn) [MMV665987], the inhibition at 50 µM in assay [1] turned out to be 95.8%; in assay [2] (setting [3]), 103%; in assay [2] (setting [4]), 104%.

For `Cc1nc2ccccc2c(O)c1CC=C(Cl)Cl` [MMV665994], the inhibition at 50 µM in assay [1] worked out at 31.7%; in assay [2] (setting [3]), 100%; in assay [2] (setting [4]), 102%.

`COc1ccc(C(=O)NC(c2ccccc2Cl)c2cc(Cl)c3cccnc3c2O)cc1` (stereo not drawn) [MMV666022]: the inhibition at 50 µM in assay [1] turned out to be 99.5%; in assay [2] (setting [3]), 103%; in assay [2] (setting [4]) it was 104%.

Regarding `OC(Cn1nnc2ccccc21)Cn1c2ccc(Br)cc2c2cc(Br)ccc21` (stereo not drawn) [MMV666025], the inhibition at 50 µM came out at 43.6% in assay [1], 99% in assay [2] (setting [3]) and 97% in assay [2] (setting [4]).

For the molecule `COc1ccc(CN2CCCC(C(=O)c3ccc(C(F)(F)F)cc3)C2)c(O)c1` (stereo not drawn) [MMV666060], the inhibition at 50 µM in assay [1] worked out at 94.3%; in assay [2] (setting [3]), 104%; in assay [2] (setting [4]), 104%.

On to `O=C(NC1CCCCC1)C(c1cccs1)N(CCc1ccccc1)C(=O)c1ccco1` (stereo not drawn) [MMV666106], for which the inhibition at 50 µM in assay [1] worked out at 76.6%; in assay [2] (setting [3]) it was 102%; in assay [2] (setting [4]), 103%.

As for `CCOC(=O)C1(Cc2ccccc2)CCN(Cc2cccc(OC)c2O)CC1` [MMV666109], the inhibition at 50 µM was 79% in assay [1], 99% in assay [2] (setting [3]) and 100% in assay [2] (setting [4]).

As to `CCCCCCc1cc2cc(-c3nc4ccccc4[nH]3)c(=Nc3ccccc3C)oc2cc1O` [MMV666597], the inhibition at 50 µM in assay [1] came to 85.4%; in assay [2] (setting [3]), 102%; in assay [2] (setting [4]), 103%.

With `CCCCCCc1cc2cc(-c3csc(C=Cc4ccccc4)n3)c(=O)oc2cc1O` [MMV666692], the results for the inhibition at 50 µM in assay [1], in assay [2] (setting [3]) and in assay [2] (setting [4]) were 99.5%, 104% and 104%, respectively.

The term inhibition denotes the change of the read-out against control, counted positive when it falls.

Values taken from PMC4890880 (ACS infectious diseases, 2016).
